Experiments:
platelet deposition [1] = conditions: systemic administration, porcine carotid model; cited from earlier work
platelet deposition [2] = assay: Indium-111-labeled platelet deposition and thrombus on coated dacron grafts in transected carotid arteries; type: in vivo, dogs; conditions: for average percent increase in graft weight due to thrombus formation on the luminal surface: dacron grafts, dog carotid artery, 2 hours, three grafts
Excerpt: This method requires the removal of platelets from an animal or human subject. The platelets are labeled with a radioactive material such as Indium^111, which emits gamma rays, detectable by a gamma counter placed 3 to 6 inches away from the source of radioactive platelets. The labeled platelets are either reinjected into the animal or human […], or contacted with the artificial surface […]. Platelets will adhere to artificial surfaces or acutely damaged arterial surfaces. Thus, the number of normal platelets and radioactive platelets which stick to the surface is an indication of the thrombogenicity of the surface.
First, the inventors coated dacron grafts and cardiac catheters with S-nitroso-bovine serum albumin (BSA). In three separate experiments, an identical pair of 6 mm. (internal diameter) knitted dacron grafts, 5 cm. in length, were prepared for surgical placement in the transected carotid arteries of three anesthetized dogs. No heparin was given. One graft was soaked in 5% BSA and the other graft was soaked in 5% BSA combined with 0.5 mM nitric oxide (producing S-nitroso-BSA) for one hour prior to insertion, and then rinsed in saline. The grafts were sutured in place with a continuous 6-0 proline suture.
Indium^111-labeled platelets are very useful in detecting platelet accumulation on vascular grafts. Therefore, Indium^111-labeled platelets were prepared according to standard methods described in Heyns “Method for Labeling Platelets with In^111-oxine”. In: Platelet Kinetics and Imaging Vol. II, Editors Heyns et al., CRC Press, 1985; and Sheffel et al., J. Nucl. Med., 20: 524-531, 1979, and injected prior to insertion of the grafts. […] The grafts were then placed in a Nal gamma well counter and counted for four minutes.

platelet deposition [3] = assay: Indium-111-labeled platelet deposition on coated 5 FR USC1 catheters in femoral arteries; type: in vivo, dogs; conditions: 5 FR catheters in dog femoral arteries 2 hours, counted four minutes, average of three
Excerpt: In addition, three pairs of 5 FR USC1 catheters were studied. One catheter was soaked in 5% BSA, while the other catheter was soaked in a mixture of S-nitroso BSA for one hour. The catheters were rinsed with saline and one each was inserted into the right or left femoral arteries of the dogs described above, and left for two hours. Each catheter was flushed with normal saline every one-half hour, but no heparin was given. The catheters were then removed and rinsed with saline. Equal lengths of the catheters were cut from the distal ends and each one was placed in a Nal gamma counter and the radioactivity was counted for four minutes.

platelet deposition [4] = assay: Indium-111-labeled platelet deposition on coated, dried and stored PVC tubing placed as femoral artery shunt; type: in vivo, dog; conditions: PVC tubing used three days after coating, femoral artery shunt 2 hours
Experimental: The inventors conducted an additional experiment to investigate whether S-nitroso-BSA can be used to coat a surface such as polyvinyl chloride (PVC), and in addition, whether such surfaces can be treated at one time, and used at a later time. In this experiment, three pieces of PVC, 3 mm in internal diameter and 2 cm. in length were soaked in BSA for 4 hours, allowed to dry, and placed in a dark place. Three identical pieces of PVC tubing were soaked in an S-nitroso-BSA solution for 4 hours, dried, and also placed in the dark.
Three days after coating, a pair of PVC tubing pieces, one coated with BSA, and one coated with S-nitroso-BSA, were placed as a shunt in each of the two femoral arteries of a dog. The dog was injected with Indium^111-labeled platelets as previously described. Two hours after the PVC shunts were placed in the circulation with radioactive platelets, they were removed and placed in the Nal gamma counter.

damaged coronary artery = assay: Cyclic flow reductions (CFRs) in damaged, stenosed coronary artery; type: in vivo, dogs; conditions: approximately 0.5 mM NO, given selectively into circumflex coronary artery
[5] = system: balloon-injured rabbit femoral artery; assay: Neointimal proliferation after balloon injury of femoral artery (morphometry); type: in vivo; conditions: 14 days after balloon injury, local delivery 15 minutes
Experimental: Femoral arteries were isolated and balloon injured as described below. pS-BSA or pS-NO-BSA were applied in a paired fashion directly into the arterial lumen for 15 minutes and then blood flow was re-established. […] Neointimal proliferation is reported as the absolute neointimal area in FIG. 5A and as a ratio of neointima/media in FIG. 5B in 4-6 segments from each artery. Data are expressed as mean +/− SEM and are derived from 15 vessels in the BSA and S-NO-BSA groups, 11 vessels in the PS-BSA group, 7 vessels in the PS-NO-BSA and SHAM groups, and 5 in the SNP group. *P<0.05, pS-NO-BSA vs. PS-BSA. +/+P<0.05 Sodium nitroprusside vs. pS-BSA for both FIGS. 5A and 5B.
Animal Preparation: All animal preparations were performed within the institutional guidelines of the Brockton/West Roxbury Department of Veteran Affairs Medical Center and Boston University Medical Center, and in accordance with the guiding principles of the American Physiological Society. New Zealand white rabbits (3.5-4.2 kg) of either sex were premedicated with 5 mg/kg intramuscular (IM) xylazine hydrochlolide (Miles Pharmaceuticals, Shawnee Mission, Kans.), and 0.1 mg/kg subcutaneous (SC) atropine sulfate (Lyphomed, Deerfield, Ill.) fifteen minutes prior to the induction of anesthesia. Anesthesia was induced with 40 mg/kg IM ketamine hydrochloride (Fort Dodge Laboratories, Fort Dodge, Ind.) and 5 mg/kg IM acepromazine maleate (Aveco Company, Inc., Fort Dodge, Ind.). Additional doses of ketamine hydrochloride were administered as necessary to maintain anesthesia. For survival studies, 100,000 U penicillin G (Apothecon of Bristol-Myers Squibb, Princeton, N.J.), was administered IM perioperatively. The skin over the femoral arteries was next infiltrated with 1% lidocaine (Astra Pharmaceuticals, Inc., Westborough, Mass.) and the common femoral arteries were exposed from the inguinal ligament to the superficial femoral artery. Arteries were cleared of connective tissue, side branches were ligated, and the superficial femoral artery was suspended with silk ties. A 1.5-to-2.0 cm length of femoral artery was isolated from the circulation proximally and distally with neurosurgical microaneurysm clips. The superficial femoral-artery was cannulated with a 2F Fogarty balloon catheter (American Edwards Laboratories, Santa Ana, Calif.) that was passed into the isolated segment of femoral artery. The balloon was inflated with sufficient air to generate slight resistance and withdrawn three times. A 20 g angiocath was then inserted in the arteriotomy and 1 ml of 25.8 mg/ml PS-NO-BSA or 49.2 mg/ml S-NO-BSA was administered over 15 minutes. The contralateral femoral artery was prepared identically and an appropriate control (25.8 mglml pS-BSA, 49.2 mg/ml BSA or 0.66 mg/ml sodium nitroprusside) was administered. For binding studies, 0.5 ml of [^125I]-labeled nitrosylated albumin or control was administered. Following administration of the agent, the superficial femoral artery was ligated and flow reestablished. Sham-operated animals underwent surgical exposure and sidebranch ligation, but no balloon injury was performed or local delivery administered. The area of balloon injury was marked by surgical staples in the adjacent muscle fascia. For chronic studies, the incision was closed with subcuticular absorbable suture and the animals allowed to recover. For acute studies, blood was allowed to circulate through the treated areas for 15 minutes prior to vessel harvest. In some experiments, a distant control vessel, the right carotid artery, was isolated and harvested without any other manipulation.
A 7F plastic cannula was inserted into the abdominal aorta and the vessels perfused clear with saline followed by fixation at 100 mm Hg pressure with 10% buffered formalin. The vessels were stored in 10% buffered formalin and the samples paraffin-embedded and microtome-sectioned. […]

[6] = system: clotting on the catheter wall; assay: Clotting on coated 3 FR USC1 catheters implanted in carotid artery; type: in vivo, dogs; conditions: catheters soaked 12 hours, in dog carotid artery 6-8 hours, no heparin
Experimental: In five anesthetized dogs, both carotid arteries were exposed. Two 3 FR USC1 catheters were prepared for arterial implantation. One catheter was soaked in a 5% BSA solution for 12 hours, while the other was soaked in a 5% BSA solution which also contained 1 mg/ml of sodium nitroprusside. One each of the two coated catheters was placed randomly in the right or left carotid artery of the dog through a small incision sealed with a 6-0 proline suture. The catheters were advanced for 5 cm into the arterial lumen. The dogs were not given any heparin. The catheters were removed 6-8 hours later and examined for clotting on the catheter wall and at the site where the catheter entered the carotid wall.

Molecule	reduction in platelet deposition (platelet deposition [1]) [fold]	average percent increase in graft weight due to thrombus formation on the luminal surface (platelet deposition [2])	Indium^111-labeled platelet counts on catheter (platelet deposition [3])	Indium^111-labeled platelet counts on PVC shunt (platelet deposition [4])	passivation of damaged arterial wall compared with sodium nitroprusside (damaged coronary artery)	neointima/media ratio [5]	neointimal area [5]	Indium^111-labeled platelet counts on graft (platelet deposition [2]; dacron grafts soaked 1 h, in dog carotid artery 2 hours, average of three grafts)	clotting on the catheter wall and entry site [6]
[NH-]c1c[n+](N2CCOCC2)no1 [SIN-1]	2.3								
S-nitroso-bovine serum albumin [S-nitroso-BSA]		196% +/−71%	2,850±800 counts	97,510 counts/4 minutes	better passivation and the effect lasts longer	0.72+/−0.084	1.83+/−0.18 ×10^5 μm^2		
bovine serum albumin [BSA, reference compound]		410% +/−97%	9,000±1,100 counts	200,870 counts/4 minutes		1.07+/−0.167	2.54+/−0.33 ×10^5 μm^2	654,000 +/−89,000 counts/4 minutes	considerably more clotting

From US6352709B1, “Localized use of nitric oxide-adducts to prevent internal tissue damage” (NitroMed, Inc., priority 1993, dated 2002)
